Source: patent publication US20110262555A1, “METHODS AND COMPOSITIONS FOR REDUCING OR PREVENTING VASCULAR CALCIFICATION DURING PERITONEAL DIALYSIS THERAPY” (BAXTER INTERNATIONAL INC., priority 2010, published 2011)
Read-outs that look alike come from different tables or passages of the source.

Legend:
[1] = tested on: APOe-KO/CRF mouse model of vascular calcification; conditions: for total aortic calcium content, effect on CRF-induced elevation: daily intraperitoneal, 8 weeks
Protocol: Homozygous apolipoprotein E knockout (apoE^−/−) mice were housed in polycarbonate cages in a pathogen-free, temperature-controlled (25° C.) room with a strict 12-hour light/dark cycle and with free access to lab chow and water. All procedures were in accordance with National Institutes of Health (“NIH”) guidelines for the care and use of experimental animals (NIH publication No. 85-23).
A 2-step procedure was used to create CRF in the mice at 10 weeks of age. Briefly, at age of 8 weeks, cortical electrocauterisation was applied to the right kidney through a 2-cm flank incision and contralateral total nephrectomy was performed through a similar incision 2 weeks later. Other mice underwent a 2-step procedure of sham operations with decapsulation of both kidneys with a 14-day distance between the two operations. Blood samples were taken 2 weeks after nephrectomy, and intra-peritoneal catheters were implanted at this time.
At the end of the study, the heart with the aortic root was then separated from ascending aorta. Cryosections of the aortic root tissue were used for quantification of vascular calcification and were used to assess atherosclerotic lesions at the site of the root. The thoracic part of the aorta was stored at −80° C. and used for quantification of calcium content.
Mice having high LDL will develop atherosclerosis. Those with the added partial nephrectomy will develop kidney impairment and were expected to produce marked vascular calcification of the heart and aorta, thus mimicking the disease seen in many dialysis patients. All groups were treated in a manner to mimic a peritoneal dialysis therapy, with a peritoneal dialysis solution either in the absence of PPi (sham and CRF placebo control groups) or containing two different doses of PPi (as outlined above).
Next, a method was employed whereby morphological image processing algorithms were used for the semi-automated measurement of calcification from sections of aorta stained using von Kossa's silver nitrate procedure (FIGS. 3A and 3B). These were acquired at low magnification power on color images. The process was separated into two sequential phases: 1) segmentation to separate the calcification structures and demarcate the region of the atherosclerotic lesion within the tissue, and 2) the quantification. Calcified structures were measured inside and outside the lesion using a granulometric curve that allows the calculation of statistical parameters of size.

female rats = conditions: for diaphragmatic inflammation, severity grade / thickness of the diaphragm section involved by inflammation: 7 days intraperitoneal
Protocol: A maximum tolerated dose study was conducted according to the study design in Table 3. Solutions that were administered were made up of a dextrose concentrate or a modified dextrose concentrate and a buffer concentrate or a modified buffer concentrate mixed in a 3:1 ratio (dextrose:buffer). Each test or control article was administered intraperitoneally once daily for 7 consecutive days to each of five different female rats at volumes of 40 mL/kg via a butterfly needle as a bolus injection. Necropsy was performed one day after the last dose.
Tissue samples of the diaphragms from all rats were trimmed, processed, embedded in paraffin, and sectioned. Hematoxylin and eosin stained slides were prepared and examined by light microscopy. Microscopic observations were subjectively graded based on the relative severity of the change: Grade 1=minimal, Grade 2=mild, Grade 3=moderate, grade 4=marked.

Row | Compound | total aortic calcium content, effect on CRF-induced elevation ([1]; 30 μM PPi in dialysis solution) | total aortic calcium content, effect on CRF-induced elevation ([1]; 150 μM PPi in dialysis solution) | aortic root calcification inside the atherosclerotic lesion (von Kossa) ([1]; high dose PPi (150 μM)) | aortic root calcification outside the lesion (von Kossa) ([1]; high dose PPi (150 μM)) | aortic root calcification outside the lesion (von Kossa) ([1]; low dose PPi (30 μM)) | inhibition of aortic root calcification inside the atherosclerotic lesion (von Kossa) ([1]; low dose PPi (30 μM)) | diaphragmatic inflammation, severity grade (female rats; 600 μM) | thickness of the diaphragm section involved by inflammation (female rats; 600 μM) | diaphragmatic inflammation, severity grade (female rats; 900 μM) | thickness of the diaphragm section involved by inflammation (female rats; 900 μM) | concentration producing chronic inflammation of the peritoneal surface of the diaphragm (local effect) (female rats; intraperitoneal, 7 consecutive days, 40 mL/kg/day, rats)
1 | O=P(O)(O)OP(=O)(O)O [pyrophosphate] | moderate reduction, that was not statistically significant | completely blocked the effect of CRF on elevation of aortic calcium | completely prevented the elevation due to CRF | totally blocked | totally blocked | approximately 50% |  |  |  |  | 
2 | O=P([O-])([O-])OP(=O)(O)O.[Na+].[Na+] [disodium pyrophosphate] |  |  |  |  |  |  | mild (Grade 2) | 5-25% | mild in 1 rat and moderate in 4 of 5 rats | up to 50% | ≥ 600 µM
